The nature of series [1]: Half life in rat. The format is ADME, organism-based. The conditions noted are these: in vivo.
A short description of series [2]: Intrinsic clearance in human liver microsomes. The format is ADME, Microsome. The conditions noted are these: read-out: CLH. (Liver microsomes are vesicles of endoplasmic reticulum, rich in cytochrome P450 enzymes.)
Series [3] is described as follows: Oral bioavailability in rat. The format is ADME, organism-based. The conditions noted are these: in vivo.
For a further series, the target named is Gamma-secretase. Kind of series: Inhibition of gamma-secretase expressed in human HEK293 NdeltaE cells assessed as cleavage of Notch. The format is cell-based.
The nature of series [4]: Volume of distribution at steady state in rat. The format is ADME, organism-based. The conditions noted are these: in vivo, read-out: Vdss.
Series [5] deals with Cavia porcellus. As to the kind of experiment: Antialzheimer activity in Hartley guinea pig assessed as effect on total amyloid beta level in plasma at 100 mg/kg, po after 4 hrs. The format is functional, organism-based. The arrangement: dose 100 mg/kg.
The test system of series [6] is Cavia porcellus. Kind of series: Antialzheimer activity in Hartley guinea pig assessed as effect on total amyloid beta level in brain at 100 mg/kg, po after 4 hrs. The arrangement: dose 100 mg/kg. The format is functional, organism-based.
A short description of series [7]: Total plasma concentration in Hartley guinea pig at 100 mg/kg, po after 4 hrs post dose. The format is ADME, organism-based, Cavia porcellus. The arrangement: dose 100 mg/kg, route oral.
Series [8] can be described thus: Fraction unbound in Hartley guinea pig plasma at 100 mg/kg, po after 4 hrs post dose. The format is ADME, organism-based, Cavia porcellus. Details: dose 100 mg/kg, route oral.
The test system of the next series is MDR1 (P-gp), human. Kind of series: Efflux ratio of permeability in MDCK cells over expressing human MDR1. The conditions noted are these: dog. The format is ADME, cell-based, Canis lupus familiaris.
Series [9] has as its system Cavia porcellus. As to the kind of experiment: Antialzheimer activity in Hartley guinea pig assessed as increase of amyloid beta38 level in plasma at 100 mg/kg, po after 4 hrs. The format is functional.
The subject of series [10] is Cavia porcellus. Kind of series: Antialzheimer activity in Hartley guinea pig assessed as reduction of amyloid beta42 level in brain at 100 mg/kg, po after 4 hrs. The format is functional. Details: scale not given: the % may be the effect or the level left.
For series [11], the system named is Cavia porcellus. As to the kind of experiment: Antialzheimer activity in Hartley guinea pig assessed as reduction of amyloid beta40 level in brain at 100 mg/kg, po after 4 hrs. The format is functional. The arrangement: scale not given: the % may be the effect or the level left.
Series [12] can be described thus: Ratio of fraction unbound in Hartley guinea pig brain to IC50 of gamma secretase expressed in CHO cells expressing APP assessed as amyloid beta42 production. The format is ADME, cell-based.
A short description of series [13]: Clearance in rat. The format is ADME, organism-based. The conditions noted are these: in vivo.
Series [14] can be described thus: Drug uptake in Hartley guinea pig brain at 100 mg/kg, po after 4 hrs post dose. The format is ADME, organism-based, Cavia porcellus. The arrangement: dose 100 mg/kg, route oral. The conditions noted are these: read-out: Drug uptake.
The nature of series [15]: Fraction unbound in Hartley guinea pig brain at 100 mg/kg, po after 4 hrs post dose […]. The format is ADME, organism-based, Cavia porcellus. Details: dose 100 mg/kg, route oral.
Series [16] can be described thus: Inhibition of gamma secretase expressed in CHO cells expressing APP assessed as amyloid beta42 production. The format is cell-based.
A further series relates to Brain. Kind of series: Ratio of drug level in p-gp knock-out mouse brain to wild type mouse brain. The conditions noted are these: in vivo. The format is ADME, tissue-based.
In the next series the target is Cytochrome P450 3A4 (Homo sapiens, UniProt P08684). As to the kind of experiment: Inhibition of CYP3A4. The format is ADME.
Chain of Cytochrome P450 3A4 (P08684 whole entry): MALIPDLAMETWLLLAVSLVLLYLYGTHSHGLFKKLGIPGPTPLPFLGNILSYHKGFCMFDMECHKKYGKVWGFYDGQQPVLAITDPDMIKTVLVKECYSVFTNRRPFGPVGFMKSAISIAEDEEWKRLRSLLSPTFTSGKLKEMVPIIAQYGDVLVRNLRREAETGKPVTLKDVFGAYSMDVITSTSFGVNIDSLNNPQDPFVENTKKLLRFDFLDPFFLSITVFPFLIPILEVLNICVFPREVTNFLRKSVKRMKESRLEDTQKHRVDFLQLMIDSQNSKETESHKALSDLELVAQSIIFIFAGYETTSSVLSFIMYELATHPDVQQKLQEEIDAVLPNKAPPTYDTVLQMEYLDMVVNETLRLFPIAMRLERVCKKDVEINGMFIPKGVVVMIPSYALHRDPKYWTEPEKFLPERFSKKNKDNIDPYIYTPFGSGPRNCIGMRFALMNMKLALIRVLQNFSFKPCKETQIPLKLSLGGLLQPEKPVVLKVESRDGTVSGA
The target of a further series is Cytochrome P450 2D6 (Homo sapiens, UniProt P10635). As to the kind of experiment: Inhibition of CYP2D6. The format is ADME.
Chain of Cytochrome P450 2D6 (P10635 whole entry): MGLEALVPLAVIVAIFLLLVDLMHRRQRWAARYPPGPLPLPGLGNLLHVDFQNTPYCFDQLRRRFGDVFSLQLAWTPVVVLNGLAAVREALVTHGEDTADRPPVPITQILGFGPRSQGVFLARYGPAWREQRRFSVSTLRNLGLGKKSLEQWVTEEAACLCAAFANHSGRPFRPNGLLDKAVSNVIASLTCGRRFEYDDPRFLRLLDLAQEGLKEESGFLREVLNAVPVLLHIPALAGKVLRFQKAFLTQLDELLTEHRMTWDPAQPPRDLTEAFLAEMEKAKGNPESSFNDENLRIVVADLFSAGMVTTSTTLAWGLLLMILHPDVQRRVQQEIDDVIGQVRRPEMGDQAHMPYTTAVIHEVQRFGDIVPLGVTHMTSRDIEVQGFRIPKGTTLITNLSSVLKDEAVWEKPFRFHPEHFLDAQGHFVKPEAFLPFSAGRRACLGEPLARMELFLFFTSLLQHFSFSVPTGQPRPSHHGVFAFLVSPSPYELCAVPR

Each structure is given as a SMILES string. Calls of active or inactive are those of the source.

The half-life is the time needed for the level to fall by half in the phase considered. By bioavailability is commonly meant the share of a dose that reaches the circulation, judged against a reference dose that is usually intravenous. A word on the IC50: it is the point on the concentration scale where inhibition reaches its midpoint. Usually fraction unbound stands for free concentration divided by total concentration. As a reminder, the efflux ratio is the permeability from basolateral to apical divided by that in the opposite direction, in the common usage. The clearance is the volume of plasma or blood freed of the substance per unit of time. The compound `COc1cc(C(=O)N[C@H]2COc3ccc(Cl)cc32)ccc1-n1cnc(C)c1` had a half-life in series [1] of 146 min. Further, the microsomal CLint in series [2] amounted to 22.3 µL/min/mg. For the same compound, the bioavailability in series [3] was found to be 100%. Moreover, the values for the IC50 (at Gamma-secretase; in series [16]) were greater than 50 µM and 521 nM, respectively. The Vd in series [4] was 1.87 L. Besides, the result in the series on Cavia porcellus [5] and in the series on Cavia porcellus [6] was inactive. Moreover, the concentration at 4 h was determined as 5120 ng/mL in [7] and 22100 ng/g in series [14]. Moreover, the results for the fraction unbound at 4 h in series [8] and in [15] were 0.088 and 0.018, respectively. In addition, the efflux ratio in the series on MDR1 (P-gp), human amounted to 1.6. The results for the Activity in the series with Cavia porcellus [9], with Cavia porcellus [10] and with Cavia porcellus [11] were 72%, 57% and 32%, respectively. Further, the Ratio in [12] came out at 2.1. Moreover, the clearance in series [13] was 9.63 mL/min/kg.
`COc1cc(C(=O)N2CC[C@](O)(COc3ccccc3C(F)(F)F)C2)ccc1-n1cnc(C)c1`: the microsomal CLint in series [2] was determined as 124 µL/min/mg. In addition, the efflux ratio in the series with MDR1 (P-gp), human stood at 24. For the same compound, in series [16], the IC50 amounted to 256 nM.
The like results for `COc1nc(C(=O)N[C@H]2COc3ccc(Cl)cc32)ccc1-n1cnc(C)c1` were, in that order, 28 µL/min/mg, 1.3 and 343 nM.
In the case of `COc1nc(C(=O)N2CC[C@H](Oc3ccccc3C(F)(F)F)C2)ccc1-n1cnc(C)c1`, the microsomal CLint in series [2] worked out at 48.7 µL/min/mg. Besides, the efflux ratio in the series with MDR1 (P-gp), human came to 1.1. In [16], the half-maximal inhibitory concentration (IC50) was 208 nM.
Turning to `COc1cc(C(=O)NCc2cnc(-c3ccccc3)s2)ccc1-n1cnc(C)c1`, the microsomal CLint in series [2] amounted to 29.3 µL/min/mg. Moreover, the Ratio in the series with Brain was found to be 5. Besides, the efflux ratio with MDR1 (P-gp), human was found to be 3.2. In addition, the IC50 in series [16] stood at 332 nM.
`COc1cc(C(=O)N[C@H]2CCc3ccc(Cl)cc32)ccc1-n1cnc(C)c1`: the microsomal CLint in series [2] turned out to be 32.7 µL/min/mg. Further, the efflux ratio with MDR1 (P-gp), human stood at 0.5. Further, in series [16], the concentration for half-maximal inhibition (IC50) was 605 nM.
Turning to `COc1cc(C(=O)N2CC[C@H](Oc3ccccc3C(F)(F)F)C2)ncc1-n1cnc(C)c1`, the IC50 in series [16] amounted to 5330 nM.
As for `COc1cc(C(=O)NCc2cccc(C(F)(F)F)c2)ccc1-n1cnc(C)c1`, in series [2], the microsomal CLint was 29.2 µL/min/mg. In the series with MDR1 (P-gp), human, the efflux ratio was 1.8. Further, in [16], the IC50 worked out at 659 nM.
The like results for `COc1nc(C(=O)NC2COc3ccc(Cl)c(C)c32)ccc1-n1cnc(C)c1` (racemic) were, in that order, 49.3 µL/min/mg, 1.8 and 234 nM.
`COc1cc(C(=O)NC2COc3ccc(F)cc32)ccc1-n1cnc(C)c1` (racemic): the microsomal CLint in [2] was found to be 21.8 µL/min/mg. In addition, the IC50 in series [16] worked out at 1560 nM.
With `COc1cc(C(=O)NCC2(c3ccc(F)cc3)CCC2)ccc1-n1cnc(C)c1`, the microsomal CLint in [2] stood at 112 µL/min/mg. Besides, in the series on MDR1 (P-gp), human, the efflux ratio amounted to 1.6. The half-maximal inhibitory concentration (IC50) in series [16] turned out to be 309 nM.
Take `COc1cc(C(=O)NCc2cc(-c3cccc(Cl)c3)no2)ccc1-n1cnc(C)c1`: the microsomal CLint in series [2] is 30 µL/min/mg. Also, the efflux ratio in the series on MDR1 (P-gp), human is 3.8. For the same compound, in series [16], the half-maximal inhibitory concentration (IC50) turned out to be 330 nM.
Consider `COc1cc(C(=O)NCc2nnc(-c3cccc(Cl)c3)o2)ccc1-n1cnc(C)c1`, for which the efflux ratio in the series with MDR1 (P-gp), human was 8.7. The IC50 in [16] was 1460 nM.
Turning to `COc1cc(C(=O)NC2COc3cccc(Cl)c32)ccc1-n1cnc(C)c1` (racemic), the microsomal CLint in [2] is 97.3 µL/min/mg. Further, the efflux ratio in the series on MDR1 (P-gp), human amounted to 1.7. Also, in series [16], the half-maximal inhibitory concentration (IC50) is 1660 nM.
The like results for `COc1cc(C(=O)N[C@@H](C)c2ccc(F)cc2)ccc1-n1cnc(C)c1` were, in that order, 12.6 µL/min/mg, 1.1 and 4400 nM.
For the compound `COc1cc(C(=O)N[C@H]2COc3c(Cl)cccc32)ccc1-n1cnc(C)c1`, the microsomal CLint in [2] was 19.4 µL/min/mg. Also, the IC50 in series [16] was found to be 1690 nM.
The like results for `COc1cc(C(=O)NC2COc3cc(Cl)ccc32)ccc1-n1cnc(C)c1` (racemic) were, in that order, 35.6 µL/min/mg and 1960 nM.
Consider `COc1cc(C(=O)N2CC[C@H](Oc3ccccc3C(F)(F)F)C2)ccc1-n1cnc(C)c1`, for which the microsomal CLint in [2] is 50.8 µL/min/mg. Besides, the efflux ratio in the series on MDR1 (P-gp), human is 2.5. The IC50 in series [16] turned out to be 320 nM.
Regarding `CCOc1cc(C)c(CN(C(=O)c2ccc(-n3cnc(C)c3)c(OC)c2)C2CC2)cc1C(C)C`, the microsomal CLint in series [2] was 122 µL/min/mg. For the same compound, in series [16], the IC50 stood at 114 nM.
Regarding `COc1cc(/C=C2\CCCN([C@@H](C)c3ccc(F)cc3)C2=O)ccc1-n1cnc(C)c1`, the microsomal CLint in series [2] turned out to be 37.1 µL/min/mg. For the same compound, in the series with MDR1 (P-gp), human, the efflux ratio was 2.2. In addition, the IC50 in [16] amounted to 143 nM.
`COc1nc(C(=O)N[C@H]2COc3ccc(Cl)c(F)c32)ccc1-n1cnc(C)c1`: in [1], the half-life is 38.4 min. In addition, the microsomal CLint in series [2] stood at 30 µL/min/mg. Besides, the bioavailability in series [3] came out at 51%. Moreover, the IC50 was greater than 50 µM at Gamma-secretase, greater than 30 µM against Cytochrome P450 3A4, greater than 30 µM against Cytochrome P450 2D6 and 188 nM in [16]. In addition, the Vd in series [4] came to 1.78 L. The values for the concentration at 4 h in [7] and in series [14] were 1290 ng/mL and 3710 ng/g, respectively. Besides, the fraction unbound at 4 h stood at 0.078 in series [8] and 0.0097 in series [15]. The efflux ratio in the series on MDR1 (P-gp), human is 1.4. Also, the Activity in the series on Cavia porcellus [10] was 36%; in the series with Cavia porcellus [11], 16%. Besides, in series [12], the Ratio stood at 0.31. This compound also had a clearance in series [13] of 31.4 mL/min/kg.
`COc1ccc2c(c1)[C@@H](NC(=O)c1ccc(-n3cnc(C)c3)c(OC)c1)CO2`: in [2], the microsomal CLint turned out to be 16.9 µL/min/mg. Further, the IC50 in series [16] worked out at 2990 nM.
In the case of `COc1cc(C(=O)N2CC[C@H](Oc3ccccc3C(F)(F)F)C2)cnc1-n1cnc(C)c1`, the efflux ratio in the series on MDR1 (P-gp), human amounted to 1.6. Besides, the IC50 in series [16] amounted to 3440 nM.
Take `COc1nc(C(=O)N2CC[C@H](Oc3ccccc3C(F)(F)F)C2)cnc1-n1cnc(C)c1`: the IC50 in series [16] is 535 nM.
